Assay [1] has as its target T1, HAQ allele hSTING (Homo sapiens, UniProt Q86WV6, G230A/H232R/R293Q).
T1 construct: DNA encoding amino acids 140-379 (amino acid numbering corresponding to Swiss Prot Q86WV6); 6xHIS (N, cleaved yes); SUMO (N, cleaved yes); made in house; host or cells: Rosetta2 (DE3) E. coli
In words: Differential scanning fluorometry (DSF) binding to purified hSTING HAQ allele. The conditions noted are these: for hSTING Tm Shift HAQ: DSF, 1 mg/ml STING AA140-379, ligand 1 mM; for binding relative to OH reference compound, in words: Table 4 comment, HAQ allele hSTING. For orientation: DSF heats the sample and reads unfolding from a dye or from intrinsic fluorescence.

For assay [2], the target named is T2, wild type (WT) STING allele (Homo sapiens, UniProt Q86WV6, H232R).
T2 construct: one donor was homozygous for the wild type (WT) STING allele; endogenous in cells; host or cells: human PBMCs, donor STING WT/WT
As to the kind of experiment: Cytokine transcript induction (qRT-PCR) in STING^WT/WT hPBMCs. The format is cell-based. Conditions: FIGS. 7A-B, 2 hours stimulation, 100 μM to 0.1 μM. The protocol: (§1) The induction of type I interferon was measured in human primary blood mononuclear cells (hPBMCs) to evaluate the potency of mono- or di-F-CDN compounds as described herein. hPBMCs from two unique donors were used: one donor was homozygous for the wild type (WT) STING allele (STING^WT/WT) and the other donor was homozygous for the so-called reference (REF) STING allele (STING^REF/REF). The STING genotype of these donors was determined by PCR amplification and sequencing: genomic DNA was isolated from 10^4 hPBMCs using Quick Extract DNA Extraction Solution (Epicentre) and was used to amplify regions of exon 3, 6, and 7 of the human STING gene.
(§2) Cells were incubated at 37° C., 5% CO2 with concentrations ranging from 100 μM to 0.1 μM of each CDN. After 2 hours (FIGS. 7 and 8) or 2 hours and 6 hours (FIGS. 9-13) stimulation, cells were harvested by centrifugation and washed once with phosphate-buffered saline. Cellular RNA was isolated using the Aurum Total RNA 96 Kit and cDNA was synthesized using the iScript cDNA Synthesis Kit. Target and reference gene expression was assessed by real-time qRT-PCR using PrimePCR probe assays and the CFX96 gene cycler (all reagents and equipment from BioRad). Normalized IFNβ expression was expressed relative to untreated cells. Target genes included type I interferon (IFNβ), Th1-associated cytokines (IFNγ, IL-12p40) and NF-kB dependent inflammatory cytokines (TNFα, IL-6). Reference genes included GUSB alone (FIGS. 7 and 8) or GUSB and HSP90AB1 (FIGS. 9-13).
In general terms: Real-time PCR tracks product formation cycle by cycle.

Assay [3] concerns the target T3, reference (REF) STING allele (Homo sapiens, UniProt Q86WV6).
T3 construct: endogenous in cells
In words: Cytokine transcript induction (qRT-PCR) in STING^REF/REF hPBMCs. Conditions: for cytokine responses (IFNβ, TNFα, IL-6, IFNγ, IL-12p40 expression), in words: FIGS. 9B-13B, 2 hours and 6 hours stimulation. The format is cell-based. As for the experimental part: as §1, §2

Assay [4] concerns the target T4, hSTING HAQ allele (Homo sapiens, UniProt Q86WV6, G230A/H232R/R293Q/R71H).
T4 construct: a human monocyte cell line containing the hSTING HAQ allele; host or cells: THP1-Dual cells
As to the kind of experiment: IRF-3 inducible secreted luciferase reporter in THP1-Dual cells without digitonin. The format is cell-based. Conditions: for EC50: without digitonin in THP1 cells (HAQ allele); for activity relative to OH reference compound, in words: Table 5 comment, THP1 cells without digitonin. In outline:
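THP1-Dual cells were exposed for 30 min, washed, and cultured overnight at 37 °C in fresh RPMI/10% FBS. Secreted luciferase in the supernatant was read with QUANTI-Luc as the type I interferon signal. EC50 was taken from a 10-point serial-dilution dose-response curve.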

Assay [5] has as its system B16.SIY cells. As to the kind of experiment: B16.SIY melanoma mouse model, intra-tumoral injection. The format is in vivo, C57BL/6 mice. The conditions noted are these: FIG. 14B, 5 μg IT, day 7 post-IT injection, vs HBSS control. The protocol:
To determine whether the derivative molecules elicit anti-tumor immunity, 6-8 week old female C57BL/6 mice (8 mice per group) were implanted with B16.SIY cells (5×10^5 cells in 100 μL PBS). Mice were treated with reference compound 3′3′-RR-(A)(A) and di-F compound 3′3′-RR-(2′F-A)(2′F-A) (5, 50, 100 μg in a total volume of 40 μL HBSS), or HBSS vehicle control. Treatments began when tumors reached a volume of approximately 100 mm^3, on day 9 post tumor implantation. The CDN compounds were administered by […] injection into the center of the tumor (IT) using a 27 gauge needle. Mice were bled on day 16 post tumor implantation and PBMCs were isolated by Ficoll gradient (Miltenyi Biotech). 1×10^5 PBMCs were pre-incubated with anti-CD16/32 monoclonal antibody to block potential nonspecific binding, and labeled with PE-MHC class I pentamer (Proimmune) consisting of murine H-2Kb complexed to […] (SIY, SEQ ID NO: 16) peptide, anti-TCRβ-AF700 (H57-597), anti-CD8-Pacific Blue (53-6.7), anti-CD4-Pacific Orange (RM4-5) (all antibodies from BioLegend) and the Fixable Viability Dye eFluor 450 (eBioscience). Stained cells were analyzed using FACS Versa cytometer with FACSDiva software (BD). Data analysis was conducted with FlowJo software (Tree Star).

Assay [6] deals with T5, hSTING(REF) (Homo sapiens, UniProt Q86WV6). As to the kind of experiment: IFN-β luciferase reporter in HEK293T cells stably expressing hSTING(REF), digitonin permeabilization. The conditions noted are these: FIGS. 6A-B, 0.1 μM to 100 μM and 6.25 μM CDN.
Target sequence in this assay (Q86WV6 whole entry, the tested form may be a part): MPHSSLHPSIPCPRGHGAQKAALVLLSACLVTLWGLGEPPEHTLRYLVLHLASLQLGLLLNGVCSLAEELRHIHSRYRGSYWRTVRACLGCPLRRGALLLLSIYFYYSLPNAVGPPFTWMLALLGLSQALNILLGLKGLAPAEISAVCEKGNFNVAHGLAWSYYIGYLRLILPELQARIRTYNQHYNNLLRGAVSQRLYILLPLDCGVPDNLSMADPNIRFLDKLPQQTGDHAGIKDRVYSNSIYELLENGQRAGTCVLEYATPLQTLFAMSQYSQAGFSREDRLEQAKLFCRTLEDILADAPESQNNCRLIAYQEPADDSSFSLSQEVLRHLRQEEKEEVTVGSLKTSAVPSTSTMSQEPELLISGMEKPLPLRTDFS
Procedure: 24 hours later, cells were stimulated with native and synthetic CDN derivative molecules using digitonin permeabilization to ensure uniform uptake.
After 20 min, the stimulation mixtures were removed and 200 ul of DMEM media supplemented with 10% (vol/vol) fetal bovine serum, 1% L-Glutamine, and 1% Penicillin/Streptomycin was added. Cells were incubated an additional 6 hours (37° C., 5% CO2) and then cell lysates were prepared and reporter gene activity measured on a Spectramax M3 luminometer using the Dual-Glo Luciferase Assay System (Promega, catalog #E2920) as described by the manufacturer. IFNβ firefly luciferase reporter gene activity was normalized to TK renilla luciferase gene activity and plotted as fold induction over activity in unstimulated cells (mean+/−s.e.m.).
Assay [7] addresses hSTING(WT) (Homo sapiens, UniProt Q86WV6, H232R). In words: Differential scanning fluorometry (DSF) binding to purified hSTING WT. Also on record: DNA encoding amino acids 140-379 (amino acid numbering corresponding to Swiss Prot Q86WV6); 6xHIS (N, cleaved yes); SUMO (N, cleaved yes); made in house; host or cells: Rosetta2 (DE3) E. coli. The conditions noted are these: for hSTING Tm Shift WT: DSF, 1 mg/ml STING AA140-379, ligand 1 mM; for binding relative to OH reference compound, in words: Table 4 comment, wild type hSTING.

Assay [8] deals with T5, hSTING(REF). In words: Differential scanning fluorometry (DSF) binding to purified hSTING REF allele. Set-up: DNA encoding amino acids 140-379 (amino acid numbering corresponding to Swiss Prot Q86WV6); 6xHIS (N, cleaved yes); SUMO (N, cleaved yes); made in house; host or cells: Rosetta2 (DE3) E. coli. Conditions: for hSTING Tm Shift REF: DSF, 1 mg/ml STING AA140-379, ligand 1 mM; for binding relative to OH reference compound, in words: Table 4 comment, REF allele hSTING.
Target sequence in this assay (Q86WV6 140-379): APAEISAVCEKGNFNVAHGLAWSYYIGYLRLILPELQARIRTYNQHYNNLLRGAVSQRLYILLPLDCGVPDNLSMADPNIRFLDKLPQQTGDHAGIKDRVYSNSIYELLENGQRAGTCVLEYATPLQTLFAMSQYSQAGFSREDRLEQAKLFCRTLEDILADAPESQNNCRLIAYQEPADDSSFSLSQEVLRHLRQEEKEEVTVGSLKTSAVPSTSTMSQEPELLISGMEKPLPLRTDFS

Assay [9] deals with T6, human-STING(E149-S379)H232R protein (Homo sapiens, UniProt Q86WV6, H232R).
T6 construct: His6 (C); made in house; host or cells: E. coli
In words: Surface Plasmon Resonance binding to hSTING WT. The conditions noted are these: Biacore T200, 15° C., steady-state analysis. The protocol:
Binding of the mono- and di-F CDN compounds was assessed using Surface Plasmon Resononce to determine a binding constant. An E. coli expression construct (human-STING[E149-S379]H232R) was prepared harboring the protein sequence:
Aliquots were prepared and stored at −80° C. in 30 mM Tris pH 7.5/100 mM NaCl/10% glycerol.
N-terminal avi-tagged human-STING(E149-S379)H232R protein was immobilized (2500 RUs) on a streptavidin chip at 15° C. in a Biacore T200 (GE Healthcare). Titrations of cyclic dinucleotides (CDNs as indicated in Table 6) in 30 mM Tris pH 7.5/50 mM NaCL/0.005% Tween 20/1 mM DTT/2% DMSO, were profiled (30 μLs/min, 180 seconds for sample contact/120 seconds for dissociation) against hSTING at 15° C. Kinetic analysis of the data was performed using Biacore T200 Evaluation software. Steady-state analysis of the data was performed using Graphpad Prism 6.0 software, using one site-specific binding algorithm (Equation is Y=Bmax*X/(Kd+X)).
A general note: In SPR one partner is held on a chip, and binding of the other changes the refractive index at the surface.

Entries after “also recorded” stand apart in the source; their conditions may differ.

T3 sequence (Q86WV6 whole entry): as the sequence (Q86WV6 whole entry, the tested form may be a part) above
Chain of hSTING(WT) (Q86WV6 140-379 H232R): as the sequence (Q86WV6 140-379) above, with H93R counted along it
T6 sequence (Q86WV6 with tags, fused parts or gaps H232R): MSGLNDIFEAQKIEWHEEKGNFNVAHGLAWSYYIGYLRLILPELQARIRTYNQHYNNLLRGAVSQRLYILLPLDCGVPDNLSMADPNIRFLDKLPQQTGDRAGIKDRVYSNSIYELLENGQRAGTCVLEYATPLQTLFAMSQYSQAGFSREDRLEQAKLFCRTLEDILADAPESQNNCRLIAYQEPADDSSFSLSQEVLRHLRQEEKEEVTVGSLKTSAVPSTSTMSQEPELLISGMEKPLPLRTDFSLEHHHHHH
T1 sequence (Q86WV6 140-379 G230A/H232R/R293Q limits assumed): as the sequence (Q86WV6 140-379) above, with G91A, H93R, R154Q counted along it
T4 sequence (Q86WV6 whole entry R71H/G230A/H232R/R293Q): as the sequence (Q86WV6 whole entry, the tested form may be a part) above, with R71H, G230A, H232R, R293Q counted along it
T2 sequence (Q86WV6 whole entry H232R): as the sequence (Q86WV6 whole entry, the tested form may be a part) above, with H232R counted along it

`Nc1ncnc2c1ncn2[C@@H]1O[C@@H]2CO[P@@](=O)(S)O[C@H]3[C@@H](O)[C@H](n4cnc5c(N)ncnc54)O[C@@H]3CO[P@@](=O)(S)O[C@H]2[C@H]1O` [3'3'-RR-(A)(A), reference compound]: in assay [1], the “hSTING Tm Shift HAQ” value is 15.5 °C. Moreover, the “relative normalized IFNβ expression, in words” value in assay [2] is on record as “induced similar levels of IFNβ; also recorded: induced higher levels of IFNβ transcript when compared to the 3′3′-(A)(A) compound”; in assay [3] (FIGS. 8A-B, 2 hours stimulation, 100 μM to 0.1 μM), “did not stimulate production of appreciable IFNβ transcript levels”. This compound had an EC50 in assay [4] of 25 µM. Besides, the “percent of SIY-specific CD8+ T cells in PBMCs, in words” value in assay [5] is listed as “elicited significantly SIY-specific CD8^+ T cells”. The “IFNβ luciferase reporter induction by hSTING(REF), in words” value in assay [6] is recorded as “responded poorly”. The “hSTING Tm Shift WT” value in assay [7] is 9.6 °C. Also, the “hSTING Tm Shift REF” value in assay [8] was 5.7 °C.

With `Nc1ncnc2c1ncn2[C@@H]1O[C@@H]2CO[P@@](=O)(S)O[C@H]3[C@@H](F)[C@H](n4cnc5c(N)ncnc54)O[C@@H]3CO[P@@](=O)(S)O[C@H]2[C@H]1O` [Compound 22, (2R,3R,3aR,5R,7aR,9R,10R,10aS,12R,14aR)-2,9-bis(6-amino-9H-purin-9-yl)-3-fluoro-10-hydroxy-5,12-dimercaptooctahydro-2H,7H-difuro[3,2-d:3′,2′-j][1,3,7,9]tetraoxa[2,8]diphosphacyclododecine 5,12-dioxide], in [1], the “hSTING Tm Shift HAQ” value was 16.0 °C. Besides, the “cytokine responses (IFNβ, TNFα, IL-6, IFNγ, IL-12p40 expression), in words” value (from here on “cytokine responses”) in [3] is listed as “able to elicit cytokine responses at 6 hours stimulation with 100 μM of compound”. For the same compound, a half-maximal effect in assay [4] (EC50) was put at 59 µM. The compound further displayed an equilibrium dissociation constant (Kd) in [9] of 1.28 µM. Moreover, in assay [7], the “hSTING Tm Shift WT” value was 9.4 °C. The “hSTING Tm Shift REF” value in assay [8] is 5.4 °C.

As for `Nc1nc2c(ncn2[C@@H]2O[C@@H]3CO[P@@](=O)(S)O[C@H]4[C@@H](O)[C@H](n5cnc6c(N)ncnc65)O[C@@H]4CO[P@@](=O)(S)O[C@H]3[C@H]2F)c(=O)[nH]1` [Compound 23, 2-amino-9-((2R,3R,3aR,5R,7aR,9R,10R,10aS,12R,14aR)-9-(6-amino-9H-purin-9-yl)-3-fluoro-10-hydroxy-5,12-dimercapto-5,12-dioxidooctahydro-2H,7H-difuro[3,2-d:3′,2′-j][1,3,7,9]tetraoxa[2,8]diphosphacyclododecin-2-yl)-1,9-dihydro-6H-purin-6-one], in assay [1], the “hSTING Tm Shift HAQ” value turned out to be 25.9 °C and the “binding relative to OH reference compound, in words” value was “improved binding”. For the same compound, the “cytokine responses” value in [3] is on record as “induced more robust dose-dependent responses of each of the cytokines tested”. Further, in assay [4], the “activity relative to OH reference compound, in words” value is recorded as “improved activity” and the EC50 was 15 µM. Moreover, the Kd in assay [9] stood at 0.311 µM. Also, in assay [7], the “hSTING Tm Shift WT” value stood at 14.7 °C and the “binding relative to OH reference compound, in words” value was “improved binding”. In assay [8], the “hSTING Tm Shift REF” value is 9.5 °C and the “binding relative to OH reference compound, in words” value is “improved binding”.

`Nc1nc2c(ncn2[C@@H]2O[C@@H]3CO[P@@](=O)(S)O[C@H]4[C@@H](F)[C@H](n5cnc6c(N)ncnc65)O[C@@H]4CO[P@@](=O)(S)O[C@H]3[C@H]2O)c(=O)[nH]1` [Compound 24, 2-amino-9-((2R,3R,3aS,5R,7aR,9R,10R,10aR,12R,14aR)-9-(6-amino-9H-purin-9-yl)-10-fluoro-3-hydroxy-5,12-dimercapto-5,12-dioxidooctahydro-2H,7H-difuro[3,2-d:3′,2′-j][1,3,7,9]tetraoxa[2,8]diphosphacyclododecin-2-yl)-1,9-dihydro-6H-purin-6-one]: in [1], the “hSTING Tm Shift HAQ” value was 28.8 °C and the “binding relative to OH reference compound, in words” value is given as “improved binding”. Besides, the “cytokine responses” value in assay [3] was “induced more robust dose-dependent responses of each of the cytokines tested”. For the same compound, in assay [4], the “activity relative to OH reference compound, in words” value is listed as “improved activity” and a half-maximal effect (EC50) was put at 13 µM. In [9], this compound registered a Kd of 0.037 µM. Moreover, in [7], the “hSTING Tm Shift WT” value turned out to be 15.9 °C and the “binding relative to OH reference compound, in words” value is “improved binding”. Further, in [8], the “hSTING Tm Shift REF” value stood at 9.7 °C and the “binding relative to OH reference compound, in words” value is recorded as “improved binding”.

What is called EC50 is the midpoint of the concentration-response curve. Low values mean an effect from little substance, high ones a need for much substance. As a reminder, the Kd is the concentration at which binding is half-saturated. Low readings indicate a tighter complex, high ones a looser complex.

For the origin of these results see patent publication US11040053B2, “Compositions and methods for activating “stimulator of interferon gene”13 dependent signalling” (CHINOOK THERAPEUTICS, INC., priority 2015, dated 2021).
